In US20150291565A1, “INDOLE COMPOUNDS AND THEIR USE AS ANTIMICROBIALS” (Memorial Sloan-Kettering Cancer Center, priority 2012, published 2015):
Values after ≈ are worked out from the molar mass of the structure shown. Where two headings read alike, the source gives them in different places.

Columns and labels:
M. smegmatis (mc2155) = experiment: Disk diffusion assay, zone of inhibition, M. smegmatis; format: cell-based
[1] = test system: S. aureus ATCC 33591 (MRSA); experiment: Broth dilution MIC, S. aureus ATCC 33591; format: cell-based; conditions: for MIC: Staphylococcus aureus
[2] = test system: E. faecalis ATCC 29212 (VRE); experiment: Broth dilution MIC, E. faecalis ATCC 29212; format: cell-based
E. faecium CT-26 = experiment: Broth dilution MIC, E. faecium CT-26; format: cell-based; conditions: Enterococcus faecium
E. coli ATCC 25922 = experiment: Broth dilution MIC, E. coli ATCC 25922; format: cell-based; conditions: Escherichia coli
K. pneumoniae ATCC 51503 = experiment: Broth dilution MIC, K. pneumoniae ATCC 51503; format: cell-based; conditions: Klebsiella pneumoniae
[3] = test system: S. aureus (MRSA) (ATCC33591); experiment: Septicemia survival model in neutropenic CD1 mice, MRSA; format: in vivo
[4] = test system: Mycobacterium tuberculosis; experiment: Time kill curve, liquid culture, M. tuberculosis; format: cell-based; conditions: 1.9 micromolar; vs DMSO control; FIG. 1 left-hand graph
Description: Either Mycobacterium tuberculosis or Mycobacterium smegmatis liquid cultures were incubated with SKI-1 (356313) at a concentration of 1.9 micromolar and viable bacterial titer was determined over the time period indicated by culturing serial dilutions on agar media. Control cultures were treated with an equivalent volume of DMSO.

Mycobacterium smegmatis = experiment: Time kill curve, liquid culture, M. smegmatis; format: cell-based; conditions: 1.9 micromolar; vs DMSO control; FIG. 1 right-hand graph

## c1cc(C2=NCCN2)ccc1Nc1ccc(-c2cc3ccc(C4=NCCN4)cc3[nH]2)cc1 [SKI-1]
M. smegmatis (mc2155); disk diffusion zone of inhibition
  Zone Size M. smegmatis: 19.6 mm
M. smegmatis (mc2155); n = 3
  Average Zone Size MC2155 (n = 3): 12.3
[1]; Table 1, range 64 down to 0.12 μg/ml, read-out: MIC S. aureus ATCC 33591
  MIC: 0.25 µg/mL (≈ 0.595 µM)
[1]; Table 2, broth dilution MIC in ug/ml, read-out: MIC S aureus ATCC 33591 MRSA
  MIC: 0.25 µg/mL (≈ 0.595 µM)
[1]; Table 4, broth dilution MIC according to CLSI standards (NAEJA), read-out: MIC MRSA S. aureus ATCC 33591
  MIC: 0.12 µg/mL (≈ 0.285 µM)
[1]; Table 3, starting at 4 μg/ml
  MIC S. aureus ATCC 33591: 0.25 µg/mL (≈ 0.595 µM)
[2]; Enterococcus faecalis, Table 1, range 64 down to 0.12 μg/ml, read-out: MIC E. faecalis ATCC 29212
  MIC: 0.25 µg/mL (≈ 0.595 µM)
[2]; Enterococcus faecalis, Table 4, broth dilution MIC according to CLSI standards (NAEJA), read-out: MIC VRE E. faecalis ATCC 29212
  MIC: 0.12 µg/mL (≈ 0.285 µM)
[2]; Table 2, broth dilution MIC in ug/ml, read-out: MIC E faecalis ATCC 29212 VRE
  MIC: 0.25 µg/mL (≈ 0.595 µM)
[2]; Table 3, starting at 4 μg/ml
  MIC E. faecalis ATCC 29212: 0.25 µg/mL (≈ 0.595 µM)
E. faecium CT-26; CT26, Table 1, range 64 down to 0.12 μg/ml, read-out: MIC E. faecium CT-26
  MIC: ≤ 0.12 µg/mL
E. faecium CT-26; CT26, Table 2, broth dilution MIC in ug/ml, read-out: MIC E faecium CT-25
  MIC: 0.06 µg/mL (≈ 0.143 µM)
E. faecium CT-26; CT26, Table 3, starting at 4 μg/ml, read-out: MIC E. faecium CT-26
  MIC: 0.06 µg/mL (≈ 0.143 µM)
E. faecium CT-26; CT26, Table 4, broth dilution MIC according to CLSI standards (NAEJA), read-out: MIC E. faecium CT-26
  MIC: 0.015 µg/mL (≈ 0.0357 µM)
E. coli ATCC 25922; ATCC 25921 / ATCC 25922, Table 2, broth dilution MIC in ug/ml, read-out: MIC E. coli ATCC 25921
  MIC: 1 µg/mL (≈ 2.38 µM)
E. coli ATCC 25922; ATCC25922, Table 1, range 64 down to 0.12 μg/ml, read-out: MIC E. coli ATCC 25922
  MIC: 1 µg/mL (≈ 2.38 µM)
E. coli ATCC 25922; ATCC25922, Table 4, broth dilution MIC according to CLSI standards (NAEJA), read-out: MIC E. coli ATCC 25922
  MIC: 0.5 µg/mL (≈ 1.19 µM)
K. pneumoniae ATCC 51503; ATCC51503, Table 1, range 64 down to 0.12 μg/ml, read-out: MIC K. pneumoniae ATCC 51503
  MIC: 2 µg/mL (≈ 4.76 µM)
K. pneumoniae ATCC 51503; ATCC51503, Table 2, broth dilution MIC in ug/ml, read-out: MIC K pneumonia ATCC 51503
  MIC: 2 µg/mL (≈ 4.76 µM)
K. pneumoniae ATCC 51503; ATCC51503, Table 4, broth dilution MIC according to CLSI standards (NAEJA), read-out: MIC K. pneumoniae ATCC 51503
  MIC: 1 µg/mL (≈ 2.38 µM)
[3]; 10 mg/kg
  Day by which all the mice died: ≤ 3 days
[3]; 10 mg/kg BID IP
  Percent Survival Day 1: 100%
  Percent Survival Day 2: 100%
  Percent Survival Day 3: 0%
  Percent Survival Day 4: 0%
  Percent Survival Day 5: 0%
  Percent Survival Day 6: 0%
  Percent Survival Day 7: 0%
[3]; 20 mg/kg
  Day by which all the mice died: ≤ 4 days
[3]; 20 mg/kg BID IP
  Percent Survival Day 1: 100%
  Percent Survival Day 2: 100%
  Percent Survival Day 3: 80%
  Percent Survival Day 4: 0%
  Percent Survival Day 5: 0%
  Percent Survival Day 6: 0%
  Percent Survival Day 7: 0%
[4]
  Viable bacterial titer over time (time kill curve): bactericidal
Mycobacterium smegmatis
  Viable bacterial titer over time (time kill curve): bactericidal
